Consider five cell lines from the supplement of paper PMC10307832.

Common to all, as to test: relative viability (nuclei count vs DMSO), 5 days (fraction); higher = more cells survive
Compound in test [1]: Cc1ccc(C(=O)Nc2cccc(C(F)(F)F)c2)cc1Nc1cncc(C(N)=O)c1 [ALW-II-49-7] + Nc1nc2[nH]cc(CCc3ccc(C(=O)N[C@@H](CCC(=O)O)C(=O)O)cc3)c2c(=O)[nH]1 [Pemetrexed] (partner 0.2 µM)
The procedure, abridged: (§1)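 Cells from lung cancer lines were seeded into 1536-well plates and, one day later, dosed by pin tool. Treatments were either a single drug or a fixed dose of an anchor drug with five library-drug doses (not always all listed) in √10 steps. After 5 days, nuclei were stained in a one-step fixation (final 0.05% Triton X-100, 1% formaldehyde, 1 ug/ml Hoechst) and counted on 4× images, and relative viability is the treated-to-vehicle nuclei ratio, as the median of duplicate plates.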

Compound in test [2]: C1CC1C(=O)NC2=NNC3=C2C=CC(=C3)C4=CC(=CC=C4)C(=O)NC5CC5 [XMD13-2] + CC(C)C[C@H](NC(=O)[C@H](Cc1ccccc1)NC(=O)c1cnccn1)B(O)O [Bortezomib] (partner 0.002 µM)
A digest of the protocol:
as §1

Compound in test [3]: Cc1nc(Nc2ncc(C(=O)Nc3c(C)cccc3Cl)s2)cc(N2CCN(CCO)CC2)n1 [Dasatinib] + CC(C)C[C@H](NC(=O)[C@H](Cc1ccccc1)NC(=O)c1cnccn1)B(O)O [Bortezomib] (partner 0.002 µM)
The procedure, abridged:
as §1

Compound in test [4]: Cc1ccc(C(=O)Nc2cccc(C(F)(F)F)c2)cc1Nc1cncc(C(N)=O)c1 [ALW-II-49-7] + CS(=O)(=O)CCNCc1ccc(-c2ccc3ncnc(Nc4ccc(OCc5cccc(F)c5)c(Cl)c4)c3c2)o1 [Lapatinib] (partner 2 µM)
The procedure, abridged: as §1

As to 201T, the relative viability stood at 0.321 in test [1] (first compound 0.08 µM); 0.365 in test [1] (first compound 0.253 µM); 0.287 in test [1] (first compound 0.8 µM); 0.346 in test [1] (first compound 2.53 µM); 0.381 in test [1] (first compound 8 µM); 1.12 in test [2] (first compound 0.05 µM). Besides, the relative viability was found to be 1.12 in test [2] (first compound 0.1581 µM); 1.16 in test [2] (first compound 0.5 µM); 1.15 in test [2] (first compound 1.581 µM); 1.18 in test [2] (first compound 5 µM); 1.04 in test [3] (first compound 0.005 µM); 0.938 in test [3] (first compound 0.01581 µM). Further, the relative viability was 1.01 in test [3] (first compound 0.05 µM); 0.982 in test [3] (first compound 0.1581 µM); 0.623 in test [3] (first compound 0.5 µM); 1.08 in test [4] (first compound 0.08 µM); 1.1 in test [4] (first compound 0.253 µM); 1.05 in test [4] (first compound 0.8 µM). Further, the figures for the relative viability in test [4] (first compound 2.53 µM) and in test [4] (first compound 8 µM) were 1.03 and 0.903, respectively.
Turning to A549, the relative viability in test [4] (first compound 0.08 µM) came to 0.958; in test [4] (first compound 0.253 µM), 1.03; in test [4] (first compound 0.8 µM) it was 1.01; in test [4] (first compound 2.53 µM) it was 1.05; in test [4] (first compound 8 µM), 0.978.
For the cell line A-427, the relative viability in test [1] (first compound 0.08 µM) turned out to be 0.982; in test [1] (first compound 0.253 µM) it was 1.11; in test [1] (first compound 0.8 µM), 0.926; in test [1] (first compound 2.53 µM), 1.02; in test [1] (first compound 8 µM), 1.06; in test [2] (first compound 0.05 µM), 0.993. For the same cell line, the relative viability in test [2] (first compound 0.1581 µM) is 1.06; in test [2] (first compound 0.5 µM), 0.993; in test [2] (first compound 1.581 µM), 0.858; in test [2] (first compound 5 µM) it was 0.857; in test [3] (first compound 0.005 µM), 1; in test [3] (first compound 0.01581 µM), 0.983. For the same cell line, the relative viability in test [3] (first compound 0.05 µM) was found to be 0.839; in test [3] (first compound 0.1581 µM) it was 0.663; in test [3] (first compound 0.5 µM) it was 0.524; in test [4] (first compound 0.08 µM), 0.988; in test [4] (first compound 0.253 µM), 1.13; in test [4] (first compound 0.8 µM), 1.06. Moreover, the figures for the relative viability in test [4] (first compound 2.53 µM) and in test [4] (first compound 8 µM) were 1.07 and 0.969, respectively.
Turning to ABC-1, the relative viability stood at 0.331 in test [2] (first compound 0.05 µM); 0.319 in test [2] (first compound 0.1581 µM); 0.261 in test [2] (first compound 0.5 µM); 0.289 in test [2] (first compound 1.581 µM); 0.296 in test [2] (first compound 5 µM); 0.295 in test [3] (first compound 0.005 µM). The relative viability in test [3] (first compound 0.01581 µM) worked out at 0.303; in test [3] (first compound 0.05 µM), 0.247; in test [3] (first compound 0.1581 µM), 0.269; in test [3] (first compound 0.5 µM), 0.351; in test [4] (first compound 0.08 µM) it was 1.31; in test [4] (first compound 0.253 µM), 1.07. Also, the relative viability stood at 1.1 in test [4] (first compound 0.8 µM), 0.311 in test [4] (first compound 2.53 µM) and 0.999 in test [4] (first compound 8 µM).
In the case of BEN, the relative viability in test [1] (first compound 0.08 µM) turned out to be 0.8; in test [1] (first compound 0.253 µM), 0.88; in test [1] (first compound 0.8 µM), 0.757; in test [1] (first compound 2.53 µM), 0.902; in test [1] (first compound 8 µM), 0.81; in test [2] (first compound 0.05 µM), 1.2. The relative viability was 0.83 in test [2] (first compound 0.1581 µM); 0.847 in test [2] (first compound 0.5 µM); 0.712 in test [2] (first compound 1.581 µM); 0.801 in test [2] (first compound 5 µM); 0.628 in test [3] (first compound 0.005 µM); 0.439 in test [3] (first compound 0.01581 µM). In addition, the relative viability turned out to be 0.425 in test [3] (first compound 0.05 µM); 0.315 in test [3] (first compound 0.1581 µM); 0.362 in test [3] (first compound 0.5 µM); 0.721 in test [4] (first compound 0.08 µM); 0.814 in test [4] (first compound 0.253 µM); 0.649 in test [4] (first compound 0.8 µM). Besides, the relative viability in test [4] (first compound 8 µM) stood at 0.629.
